Laboratory results reported in PMC11249953, “c-KIT inhibitors reduce pathology and improve behavior in the Tg(SwDI) model of Alzheimer’s disease” (Life Science Alliance, 2024).
“And” between values parts separate entries of the source, which are not always exact repeats. Identical values can stand only once.

What was measured:
[1] = target: T1, CIT (Homo sapiens, UniProt O14578); assay: KINOMEscan competition binding, CIT; details: 10 µM compound; for remaining binding at 10 µM: lower = stronger binding, read-out: CIT %Ctrl @ 10000nM (POC)
T1 construct: DNA label for qPCR read-out (T7 phage fusion or DNA tag); purchased Eurofins DiscoverX Corporation; host or cells: T7 phage in E. coli (BL21-derived) or HEK-293
Procedure: The KINOMEscan screening platform (Eurofins DiscoverX Corporation) was performed using active site-directed competition binding assay to quantitatively measure interactions between BK40143 and BK40197 and more than 450 human kinases and disease relevant mutant variants. […] Screening “hits” are identified by measuring the amount of kinase captured in test (BK40143 and BK40197) versus control samples by using a quantitative and ultra-sensitive qRT-PCR method that detects the associated DNA label. BK40143 and BK40197 were screened at 10 µM concentration, and results for primary screen binding interactions were reported as “% Ctrl” (POC), where lower numbers indicate stronger hits and calculated as follows: [test compound signal−positive control signal/negative control signal−positive control signal]×100
negative control = DMSO (100% Ctrl)
positive control = control compound (0% Ctrl)
Based on screening data from of profiled compounds, a proportional relationship between primary screening results and corresponding compound/target affinities can be described as binding constants (Kd values) for the indicated ranges of POC values with tighter binding (higher affinity) interactions associated with lower POC values and weaker binding (lower affinity) associated with higher POC values. Briefly, kinase-tagged T7 phage strains were grown in parallel in 24-well blocks in an E. coli host derived from the BL21 strain. E. coli were grown to log-phase and infected with T7 phage from a frozen stock (multiplicity of infection = 0.4) and incubated with shaking at 32°C until lysis (90–150 min). The lysates were centrifuged (6,000g) and filtered (0.2 μm) to remove cell debris. The remaining kinases were produced in HEK-293 cells and subsequently tagged with DNA for qRT-PCR detection. Streptavidin-coated magnetic beads were treated with biotinylated small molecule ligands for 30 min at RT to generate affinity resins for kinase assays. The liganded beads were blocked with excess biotin and washed with blocking buffer (1% BSA, 0.05% Tween 20, 1 mM DTT; SeaBlock [Pierce]) to remove unbound ligand and to reduce non-specific phage binding. Binding reactions were assembled by combining kinases, liganded affinity beads, and test compounds in 1x binding buffer (20% 0.17x PBS, 0.05% Tween 20, 6 mM DTT; SeaBlock). Test compounds were prepared as 100x stocks in 100% DMSO and directly diluted into the assay. All reactions were performed in polypropylene 384-well plates in a final volume of 0.02 ml. The assay plates were incubated at RT with shaking for 1 h and the affinity beads were washed with wash buffer (1x PBS, 0.05% Tween 20). […] The kinase concentration in the eluates was measured by qRT-PCR.

[2] = tested on: peripheral mast cells of TgAPP mice; assay: In vivo mast cell analysis (flow cytometry of whole blood, CD117 / FcεR1); design: species or system mouse; key to CD117 (single-labelled mast cells): % of single-labelled (CD117+) mast cells; CD117 Total: unit not given here; details: for ratio of immature-to-mature mast cells (c-KIT+ versus c-KIT+/FcεR1α+) in whole blood: TgAPP mice, BK40143 5 mg/kg, BK40197 45 mg/kg, 6 wk, vs DMSO
Excerpt: c-KIT is responsible for mast cell development and homeostasis ([Lake et al, 1978]; [Linnekin, 1999]; [Kitamura et al, 2006]). TKs are the central driving force for processes leading to mast cell activation ([Parravicini et al, 2002]; [Gomez et al, 2005]). Multiple receptors are capable of mediating or modifying mast cell activation ([Kraft & Kinet, 2007]; [Kuehn & Gilfillan, 2007]), the major receptor responsible being FcεRI, the high affinity receptor for immunoglobulin E (IgE) ([Rivera & Gilfillan, 2006]). Mast cells are tissue-resident cells of hematopoietic lineage which are derived from CD13^+CD34^+KIT(CD117)^+ bone marrow pluripotent progenitors ([Kirshenbaum et al, 1999]). Although mast cells play an important role in the innate immune system ([Marshall, 2004]; [Galli et al, 2005]), these cells are also responsible for the detrimental exaggerated reactions to antigen ([Galli et al, 2008]) that follow the release of potent inflammatory mediators as a consequence of receptor-mediated mast cell activation ([Metcalfe et al, 1997]). The progression of these cells to fully mature mast cells is dependent on c-KIT activation which occurs because of stem cell factor-induced c-KIT dimerization and auto-phosphorylation ([Kirshenbaum et al, 1999]). To verify the functional effects of BK40143 and BK40197 on c-KIT inhibition, we investigated whether inhibition of c-KIT with BK40143 and BK40197 affects peripheral mast cell populations in vivo. We collected whole blood samples from Tg(SwDI) (referred to as TgAPP) mice treated with 5 or 45 mg/kg of each drug, respectively, or DMSO for 6 wk before isolating mast cells for analysis via flow cytometry (Fig 3A–C). Whole blood was sorted for mast cells using a triple gating strategy: 647 anti-CD45 to isolate leukocytes, PE anti-c-KIT to isolate mast cells, and APC/fire anti-FcεR1α to identify mature mast cells. The ratio of immature-to-mature mast cells (c-KIT+ versus c-KIT+/ FcεR1α+) was compared between c-KIT inhibited and DMSO-treated controls to determine the functional consequence of c-KIT inhibition on peripheral mast cell maturation.
Whole blood samples were harvested from the right ventricle of treated and untreated mice and added to 1,000 U/ml heparin-coated tubes to prevent coagulation. 100 μl of blood was then treated with three flow-conjugated antibodies: 647 anti-mouse CD45 (cat. #103123; BioLegend), PE anti-mouse CD117 (c-KIT) (cat. # 105807; BioLegend), and APC/fire 750 anti-mouse FcεR1α (cat. #134339; BioLegend) for 30 min, then treated with 1x RBC lysis buffer (cat. #420301; BioLegend) for 20 min. Cells were washed and resuspended in cell staining buffer before being analyzed on a Becton Dickinson LSRFortessas flow cytometer. Immature-to-mature mast cell ratio was calculated by dividing the percentage of single-labelled (CD117+) mast cells by the total number of c-KIT expressing cells (CD117+ plus CD117+ FcεR1+). All animal work was approved by Georgetown University Animal Care and Use Committee (GUACUC).

[3] = 5mg/kg, whole blood, individual mice

T1 sequence (O14578 whole entry, the tested form may be a part): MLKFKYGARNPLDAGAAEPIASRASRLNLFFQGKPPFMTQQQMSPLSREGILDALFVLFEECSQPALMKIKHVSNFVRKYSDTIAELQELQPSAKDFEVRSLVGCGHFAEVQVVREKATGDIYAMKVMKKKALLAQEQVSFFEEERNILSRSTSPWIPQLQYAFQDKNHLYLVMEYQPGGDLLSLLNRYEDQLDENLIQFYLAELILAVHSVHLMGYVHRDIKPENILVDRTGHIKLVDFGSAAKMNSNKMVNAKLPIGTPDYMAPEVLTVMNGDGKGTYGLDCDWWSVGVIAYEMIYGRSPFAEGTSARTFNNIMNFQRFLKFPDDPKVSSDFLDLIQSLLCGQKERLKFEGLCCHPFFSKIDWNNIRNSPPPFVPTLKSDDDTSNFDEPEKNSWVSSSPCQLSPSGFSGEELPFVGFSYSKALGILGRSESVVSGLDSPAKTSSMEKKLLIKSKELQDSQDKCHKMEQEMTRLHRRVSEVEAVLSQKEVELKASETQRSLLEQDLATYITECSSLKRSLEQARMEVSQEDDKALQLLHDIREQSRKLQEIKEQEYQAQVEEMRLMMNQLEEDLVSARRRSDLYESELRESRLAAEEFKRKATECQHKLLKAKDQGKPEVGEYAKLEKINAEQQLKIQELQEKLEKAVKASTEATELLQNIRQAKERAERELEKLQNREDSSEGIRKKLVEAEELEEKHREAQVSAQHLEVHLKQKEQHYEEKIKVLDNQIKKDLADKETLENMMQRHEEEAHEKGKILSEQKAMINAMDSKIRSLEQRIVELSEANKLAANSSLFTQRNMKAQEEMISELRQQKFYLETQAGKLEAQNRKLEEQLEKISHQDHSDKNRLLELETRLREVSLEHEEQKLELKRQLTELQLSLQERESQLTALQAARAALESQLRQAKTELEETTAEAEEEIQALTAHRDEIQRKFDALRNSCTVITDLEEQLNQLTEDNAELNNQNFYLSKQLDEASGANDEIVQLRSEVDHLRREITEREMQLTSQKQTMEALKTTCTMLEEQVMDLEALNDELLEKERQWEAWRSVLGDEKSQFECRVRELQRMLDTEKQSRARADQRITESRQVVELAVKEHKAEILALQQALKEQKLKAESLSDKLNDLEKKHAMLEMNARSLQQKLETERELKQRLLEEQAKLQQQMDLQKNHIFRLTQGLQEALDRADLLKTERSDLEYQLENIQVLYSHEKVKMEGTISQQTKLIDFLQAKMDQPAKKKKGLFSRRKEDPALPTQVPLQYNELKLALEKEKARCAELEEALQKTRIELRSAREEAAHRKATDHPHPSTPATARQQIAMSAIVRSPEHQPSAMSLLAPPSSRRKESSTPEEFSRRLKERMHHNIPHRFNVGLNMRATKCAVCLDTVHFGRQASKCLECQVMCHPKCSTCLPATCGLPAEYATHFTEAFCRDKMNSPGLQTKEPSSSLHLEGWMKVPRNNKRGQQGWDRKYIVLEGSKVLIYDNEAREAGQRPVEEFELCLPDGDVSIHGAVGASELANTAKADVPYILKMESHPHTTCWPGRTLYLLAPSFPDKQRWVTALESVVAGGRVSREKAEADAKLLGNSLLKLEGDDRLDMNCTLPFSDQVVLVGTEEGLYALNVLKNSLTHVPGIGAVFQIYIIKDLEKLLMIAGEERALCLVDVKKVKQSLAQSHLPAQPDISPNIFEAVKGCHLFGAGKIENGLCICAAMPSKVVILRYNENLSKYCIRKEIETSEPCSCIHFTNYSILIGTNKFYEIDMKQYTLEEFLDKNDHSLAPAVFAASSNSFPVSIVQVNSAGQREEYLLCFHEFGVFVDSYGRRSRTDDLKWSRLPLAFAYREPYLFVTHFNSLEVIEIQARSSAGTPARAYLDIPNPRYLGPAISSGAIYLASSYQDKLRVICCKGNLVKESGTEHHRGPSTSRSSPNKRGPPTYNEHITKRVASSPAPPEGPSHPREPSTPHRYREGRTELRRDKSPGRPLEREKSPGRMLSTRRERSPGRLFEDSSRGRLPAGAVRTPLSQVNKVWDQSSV

Row | SMILES | inhibition at 10 µM [1] [%] | remaining binding at 10 µM [1] [%] | CD117 (single-labelled mast cells) [2, 3] | CD117 / Total (immature-to-mature mast cell ratio) [2, 3] | CD117/FcER1 (double-labelled mast cells) [2, 3] | CD117 Total [2, 3] | ratio of immature-to-mature mast cells (c-KIT+ versus c-KIT+/FcεR1α+) in whole blood [2]
1 | Cc1cccc(-c2cc3nccc(Nc4ccccc4)c3s2)c1 [BK40143] | 97.2 | 2.8 | 1.06 and 0.7 and 1.08 and 1.14 and 0.83 and 6.55 and 2.98 | 0.9815 and 0.9589 and 0.9231 and 0.9661 and 0.9881 and 0.9278 and 0.9141 | 0.02 and 0.03 and 0.09 and 0.04 and 0.01 and 0.51 and 0.28 | 1.08 and 0.73 and 1.17 and 1.18 and 0.84 and 7.06 and 3.26 | significantly greater ratio of immature-to-mature mast cells
2 | Cc1cccc(-c2cc3nccc(N4CCOCC4)c3s2)c1 [BK40197] | 19 | 81 |  |  |  |  | not statistically significant (P = 0.07) increase in immature-to-mature mast cell ratio
